Each molecule was assayed on phospho-ERK1/2 in MIA PaCa-2 cells (express KRAS G12C) (assay: ERK1/2 phosphorylation in MIA PaCa-2 cells). Conditions: not given.
Type: cell-based, human
Design: key: X: KRAS G12C bound and modulated in cells
Method: MIA PaCa-2 cells were cultured in Dulbecco's Modified Eagle's Medium (Wisent) supplemented with 10% FBS, 2.5% horse serum, and 1% penicillin/streptomycin. Cells were seeded in 6-well plates at 500,000 cells/well and incubated at 37° C., 5% CO2 for 16 hours. Cells were treated with the indicated concentrations of compound or DMSO alone and incubated at 37° C., 5% CO2 for 6 or 24 hours. Conditioned media was discarded, and adherent cells were washed with PBS before they were scraped. Cell suspensions were centrifugated at 2,000 RPM for 5 minutes at 4° C. and supernatants were discarded. Cell pellets were resuspended with 1×RIPA buffer (Millipore) and incubated on ice for 15 minutes. Protein lysates were extracted by centrifugating at 20,000 RPM for 20 minutes at 4° C. Proteins were separated and total KRas protein levels were quantified by Simple Western Immunoassay (ProteinSimple) using the 2-40 kDa Separation Module for Jess according to the manufacturer's protocol, using a protein concentration of 0.5 μg/μl and antibodies targeting KRas (clone #4F3, Sigma) and GAPDH (clone #14C10, Cell Signaling) diluted to 1:10 and 1:1600, respectively, where the latter was used as a loading control. A 3:1 ratio of rabbit to mouse HRP-conjugated secondary antibodies was used for detection. KRas protein levels were quantified relative to GAPDH loading levels and subsequently normalized to the DMSO control. Phosphorylated ERK1/2 levels were quantified by Simple Western Immunoassay (ProteinSimple) using the Protein Normalization Assay Module for Jess according to the manufacturer's protocol using a protein concentration of 0.5 μg/μl and an antibody targeting phosphor-ERK1/2 (clone #D13.14.4E, Cell Signalling) diluted to 1:10. Phosphorylated ERK1/2 levels were normalized to the Jess Protein Normalization Reagent loading control and subsequently to the DMSO control.
MIA PaCa-2 cells were cultured in Dulbecco's Modified Eagle's Medium (Wisent) supplemented with 10% FBS, 2.5% horse serum, and 1% penicillin/streptomycin. Cells were seeded in 96-well plates at a density of 25,000 cells/well and incubated at 37° C., 5% CO2 for 24 hours. The next day, cells were starved in cell culture media containing 1% FBS only at 37° C., 5% CO2 for 16 hours. Following starvation, serially-diluted compounds or DMSO alone were added to cells and incubated at 37° C., 5% CO2 for 1 or 3 hours. Prior to cell lysis, 25 ng/ml human epidermal growth factor (hEGF) (Sigma) was added to the cells and incubated at 37° C., 5% CO2 for 10 minutes. Conditioned media was discarded, and adherent cells lysed and basal ERK1/2 phosphorylation levels were measured using the Phospho-ERK (Thr202/Tyr204) Cellular HTRF kit (Perkin Elmer) according to the manufacturer's protocol. The fluorescent signal of the acceptor antibody at a wavelength of 665 nm was normalized to that of the donor antibody at 620 nm. HTRF ratios were plotted and relative IC50 values were obtained using Prism (GraphPad).

SMILES | pERK - MIA PaCa-2 - (6 hours, 5 uM)
O=S(=O)(c1c(F)c(F)c(F)c(F)c1C(F)(F)F)N1CCN(c2ncnc3c2CCN(c2cccc4ccccc24)C3)CC1 [Compound 33A, 7-(naphthalen-1-yl)-4-(4-((2,3,4,5-tetrafluoro-6-(trifluoromethyl)phenyl)sulfonyl)piperazin-1-yl)-5,6,7,8-tetrahydropyrido[3,4-d]pyrimidine] | X
O=S(=O)(c1c(F)c(F)c(F)c(F)c1C(F)(F)F)N1CCN(c2ncnc3c2CCN(c2cccc4cccc(Cl)c24)C3)CC1 [Compound 32A, 7-(8-chloronaphthalen-1-yl)-4-(4-((2,3,4,5-tetrafluoro-6-(trifluoromethyl)phenyl)sulfonyl)piperazin-1-yl)-5,6,7,8-tetrahydropyrido[3,4-d]pyrimidine] | X
C[C@H]1CN(c2c(F)c(F)c(F)c(F)c2S(C)(=O)=O)CCN1c1ncnc2cc(-c3ccccc3F)c(Cl)cc12 [Compound 34A, (S)-6-chloro-7-(2-fluorophenyl)-4-(2-methyl-4-(2,3,4,5-tetrafluoro-6-(methylsulfonyl)phenyl)piperazin-1-yl)quinazoline] | X
COc1cc(N2CCc3c(ncnc3N3CCN(S(=O)(=O)c4c(F)c(F)c(F)c(F)c4C(F)(F)F)CC3)C2)c2ccccc2c1 [Compound 40A, 7-(3-methoxy-1-naphthyl)-4-[4-[2,3,4,5-tetrakis(fluoranyl)-6-[tris(fluoranyl)methyl]phenyl]sulfonylpiperazin-1-yl]-6,8-dihydro-5H-pyrido[3,4-d]pyrimidine] | X
C[C@H]1CN(Cc2c(F)c(F)c(F)c(F)c2[S+](C)[O-])CCN1c1ncnc2cc(-c3ccccc3F)c(Cl)cc12 (stereo partly drawn) [Compound 46A, 6-chloro-7-(2-fluorophenyl)-4-((2S)-2-methyl-4-(2,3,4,5-tetrafluoro-6-(methylsulfinyl)benzyl)piperazin-1-yl)quinazoline] | X
CS(=O)(=O)c1c(F)c(F)c(F)c(F)c1NC1CN(c2ncnc3cc(-c4ccccc4F)c(Cl)cc23)C1 [Compound 36A, 1-(6-chloro-7-(2-fluorophenyl)quinazolin-4-yl)-N-(2,3,4,5-tetrafluoro-6-(methylsulfonyl)phenyl)azetidin-3-amine] | X

These molecules were tested against KRAS G12C (Homo sapiens, UniProt P01116, G12C) (assay: SOS1-catalyzed KRAS coupled nucleotide exchange assay (Alpha technology)). Conditions: inhibition of SOS1 mediated KRAS nucleotide exchange.
Type: biochemical
Design: His; key: A: KRAS G12C bound and modulated
Method: Method I: The inhibition of the SOS1-catalyzed nucleotide exchange activity of KRAS (e.g., KRAS G12C/C118A) was measured using Alpha (Amplified Luminescent Proximity Homogeneous Assay) technology. 20 nM GDP-bound human KRAS (G12C/C118A) protein was incubated with two-fold serially-diluted test compound or DMSO for 5 minutes at ambient temperature in reaction buffer (25 mM HEPES, pH 7.4; 10 mM MgCl2; 0.01% Triton X-100). For all subsequent steps, DTT was added to the reaction buffer at a final concentration of 1 mM. Next, GTP and SOS-1 were added in DTT-reaction buffer at final concentrations of 1.25 mM or 500 nM, respectively, and incubated at RT for 30 minutes. Finally, c-RAF RBD (50 nM final), Alpha glutathione donor beads (PerkinElmer; 20 μg/mL final), and AlphaLISAnickel chelate acceptor beads (PerkinElmer; 20 μg/mL final), all diluted in DTT-reaction buffer, were added. The reaction mixture was incubated at RT for 5 min, and then the plates were read on an EnVision® Multilabel Reader using the AlphaScreen protocol. Luminescence signal was measured at 570 nm following a 180 ms excitation at 680 nm. Signal intensity corresponded with the association of c-RAF RBD with GTP-bound KRAS G12C/C118A and was normalized to DMSO control.
Method II: Inhibition of the SOS1-catalyzed nucleotide exchange activity of KRAS^G12C was measured using Alpha technology (PerkinElmer). 50 nM GDP-bound human KRAS^G12C protein was incubated with serially-diluted compound or DMSO for 2 hrs at RT in RBD-RAS binding buffer (BPSBioscience). 1 mM GTP and 500 nM SOS-1 were added to the reaction mixture and incubated at RT for 30 min. GST-tagged RBD-cRAF was then added to the reaction mixture at a final concentration of 2.5 nM and incubated at RT for 30 min. Finally, Alpha Glutathione acceptor beads and Nickel chelate donor beads (PerkinElmer) were diluted to 1:500 and 1:250, respectively, and added to the reaction mixture. The final reaction was incubated at RT for 30 min. Plates were read on a TECAN SPARK® Multiplate Reader. The luminescence signal was measured at 615 nm following excitation at 680 nm. Signal intensity was normalized to DMSO control.

KRAS-SOS1 Nucleotide Exchange | SMILES
A | O=S(=O)(c1c(F)c(F)c(F)c(F)c1OC(F)F)N1CCN(c2ncnc3c2CCN(c2cccc4ccccc24)C3)CC1 [Compound 30A, 4-(4-((2-(difluoromethoxy)-3,4,5,6-tetrafluorophenyl)sulfonyl)piperazin-1-yl)-7-(naphthalen-1-yl)-5,6,7,8-tetrahydropyrido[3,4-d]pyrimidine]
A | O=S(=O)(NC1CN(c2ncnc3c2CCN(c2cccc4cccc(Cl)c24)C3)C1)c1c(F)c(F)c(F)c(F)c1F [Compound 21A, N-(1-(7-(8-chloronaphthalen-1-yl)-5,6,7,8-tetrahydropyrido[3,4-d]pyrimidin-4-yl)azetidin-3-yl)-2,3,4,5,6-pentafluorobenzenesulfonamide]
A | CS(=O)(=O)c1c(F)c(F)c(NC2CN(c3ncnc4cc(-c5ccccc5F)c(Cl)cc34)C2)c(F)c1F [Compound 23A, 1-(6-chloro-7-(2-fluorophenyl)quinazolin-4-yl)-N-(2,3,5,6-tetrafluoro-4-(methylsulfonyl)phenyl)azetidin-3-amine]
A | Cc1cccc(C)c1-c1cc2nccc(N3CCN(Cc4c(F)c(F)c(F)c(F)c4S(C)(=O)=O)C[C@@H]3C)c2cc1Cl [Compound 45A, (S)-6-chloro-7-(2,6-dimethylphenyl)-4-(2-methyl-4-(2,3,4,5-tetrafluoro-6-(methylsulfonyl)benzyl)piperazin-1-yl)quinoline]
A | C[C@H]1CN(c2c(F)c(F)c(S(C)(=O)=O)c(F)c2F)CCN1c1ccnc2c(F)c(-c3c(O)cccc3F)c(Cl)cc12 (single isomer, unassigned) [Compound 26A]
A | C[C@H]1CN(c2c(F)c(F)c(S(C)(=O)=O)c(F)c2F)CCN1c1ccnc2c(F)c(-c3c(O)cccc3F)c(Cl)cc12 (racemic) [Compound 24A, 2-(6-chloro-8-fluoro-4-((S)-2-methyl-4-(2,3,5,6-tetrafluoro-4-(methylsulfonyl)phenyl)piperazin-1-yl)quinolin-7-yl)-3-fluorophenol]
A | C[S+]([O-])c1c(F)c(F)c(NC2CN(c3ncnc4cc(-c5ccccc5F)c(Cl)cc34)C2)c(F)c1F (racemic) [Compound 28A, 1-(6-chloro-7-(2-fluorophenyl)quinazolin-4-yl)-N-(2,3,5,6-tetrafluoro-4-(methylsulfinyl)phenyl)azetidin-3-amine]
A | CSc1c(F)c(F)c(N2CCN(c3ccnc4c(F)c(-c5c(O)cccc5F)c(Cl)cc34)[C@@H](C)C2)c(F)c1F [Compound 29A, 2-(6-chloro-8-fluoro-4-((S)-2-methyl-4-(2,3,5,6-tetrafluoro-4-(methylthio)phenyl)piperazin-1-yl)quinolin-7-yl)-3-fluorophenol]
A | Cc1cccc(C)c1-c1cc2nccc(N3CC(Nc4c(F)c(F)c([S@+](C)[O-])c(F)c4F)C3)c2cc1Cl (racemic) [Compound 27A]
A | Cc1cccc(C)c1-c1cc2nccc(N3CC(Nc4c(F)c(F)c(S(C)(=O)=O)c(F)c4F)C3)c2cc1Cl [Compound 22A, 1-(6-chloro-7-(2,6-dimethylphenyl)quinolin-4-yl)-N-(2,3,5,6-tetrafluoro-4-(methylsulfonyl)phenyl)azetidin-3-amine]
A | CSc1c(F)c(F)c(F)c(F)c1N1CC(Nc2ncnc3cc(-c4ccccc4F)c(Cl)cc23)C1 [Compound 47A, 6-chloro-7-(2-fluorophenyl)-N-(1-(2,3,4,5-tetrafluoro-6-(methylthio)phenyl)azetidin-3-yl)quinazolin-4-amine]
A | C[C@H]1CN(c2c(F)c(F)c(F)c(F)c2[S+](C)[O-])CCN1c1ncnc2cc(-c3ccccc3F)c(Cl)cc12 (stereo partly drawn) [Compound 38A, 6-chloro-7-(2-fluorophenyl)-4-((2S)-2-methyl-4-(2,3,4,5-tetrafluoro-6-(methylsulfinyl)phenyl)piperazin-1-yl)quinazoline]
A | C[C@H]1CN(c2c(F)c(F)c(S(C)(=O)=O)c(F)c2F)CCN1c1ccnc2c(F)c(-c3c(O)cccc3F)c(Cl)cc12 (single isomer, unassigned) [Compound 25A]
